Where two headings read alike, the source gives them in different places.
What was measured:
S. mansoni schistosomula = assay: In vitro schistosomula screening (Roboworm platform), phenotype and motility; type: cell-based, Schistosoma mansoni; conditions: for EC50: Schistosoma mansoni, two-fold titration 10 μM–0.625 μM, single replicate, approximate
Experimental: Briefly, 384-well tissue culture plates (Perkin Elmer, cat 6007460), containing 20 μl of Basch medium, were wet-stamped using a Biomek NX^P liquid handling platform (Beckman Coulter, UK) with negative (0.625% dimethyl sulfoxide, DMSO) and positive controls (AUR and PZQ at 10 μM final concentration in 0.625% DMSO) as well as 37 SGC compounds (at 10 μM final concentration in 0.625% DMSO). […] To each pre-loaded well (single concentration or titration screens), a total of 100–120 mechanically transformed schistosomula (in 60 μl) were deposited via a WellMate (Thermo Scientific, UK). Schistosomula/compound co-cultures (80 μl in total) were then incubated at 37°C for 72 h in a humidified atmosphere containing 5% CO2. At 72 h, tissue culture plates (containing schistosomula/compound co-cultures) were imaged under the same conditions (37°C in a humidified atmosphere containing 5% CO2) using an ImageXpressXL high content imager (Molecular Devices, UK) with subsequent images processed for phenotype and motility as previously reported and successfully implemented by us at Aberystwyth University. Single point schistosomula screens (10 μM) were repeated two or three times whereas dose response titrations were performed once. Zˊ values obtained from all schistosomula screens ranged from 0.27–0.48 (mean = 0.40) for phenotype and 0.41–0.56 (mean = 0.48) for motility.

[1] = tested on: adult male and female schistosome pairs; assay: In vitro adult schistosome screening (WHO/TDR motility, egg counts); type: cell-based, Schistosoma mansoni; conditions: for EC50: Schistosoma mansoni, motility
Experimental: In vitro screening was replicated three times on different dates to account for any biological variation. Briefly three adult worm pairs/well (48-well tissue culture plate format) were placed into DMEM (Gibco, Paisley, UK) supplemented with 10% (v/v) FCS (Gibco, Paisley, UK), 1% (v/v) L-glutamine (Gibco, Paisley, UK) and an antibiotic mixture (150 Units/ml penicillin and 150 μg/ml streptomycin; Gibco, UK). DMSO (0.5% negative control), AUR (10 μM concentration in 0.5% DMSO; positive control) and two-fold titrations of SGC compounds (50 μM– 6.25 μM or 50 μM– 0.05 μM; in 0.5% DMSO max) were added, and together, these adult worm/compound co-cultures were incubated at 37°C for 72 h in a humidified atmosphere containing 5% CO2. Following compound incubation, WHO/TDR readouts of adult worm motility, abundance of H3K36me2 (LLY-507 and BAY-598 treated worms only) in histone extracts and egg counts/well were recorded at 72 h.

[2] = HepG2 cell cytotoxicity, MTT assay; type: cell-based, Human; conditions: human, HepG2 cells, read-out: CC50 (HepG2) (95% Confidence Intervals)
Experimental: (§1) Human Hepatocyte Carcinoma (HepG2) cells (Sigma Aldrich, UK) were utilized to assess SGC epigenetic probe cell cytotoxicity in the application of the MTT (3-(4,5-dimethylthiazol-2-yl)-2,5-diphenyltetrazolium bromide) assay. Briefly, cells were passaged at 70–80% confluence and seeded (20,000 cells/ 50 μL per well) in a 96-well, black-sided, clear-bottomed falcon plate (Fisher Scientific, UK) with the final plate column (8 wells) being treated as a blank (media only). Following a 24 h incubation (5% CO2, 37°C, humidified), HepG2 cells were then treated with 50 μL of pre-warmed media (37°C) containing SGC EPs/EIs at 200 μM to 0.02 μM (final concentration 100 μM, 10 μM, 1 μM, 0.1 μM and 0.01 μM). Three positive (1% Triton X-100) and negative (1% DMSO) control wells per plate were additionally included.
(§2) After addition of compounds, each plate was then incubated for a further 20 h before application of MTT for assessment of overt compound cytotoxicity using the MTT assay. The MTT assay was read using the POLARstar Omega (BMG LabTech, UK) plate reader at an absorbance of 570 nm. CC50s were calculated in GraphPad Prism.

HepG2 cells = assay: HepG2 cell cytotoxicity, MTT assay; type: cell-based, Human; conditions: 20 h, read-out: CC50 (HepG2) (95% Confidence Intervals)
Experimental: as §1, §2

[3] = tested on: in vitro laid eggs (IVLEs) of adult worm pairs; assay: Vitellocyte and egg volume quantification of in vitro laid eggs (LSCM); type: cell-based, Schistosoma mansoni; conditions: 0.2 μM, 72 h, n = 10 eggs
Description: Fluorescent microscopic images (10 eggs per treatment) were captured on a Leica TCS SP8 super resolution laser confocal microscope fitted with a 63 X (water immersion) objective using the Leica Application Suite X. Green (egg autofluorescence) fluorescence was visualised with an argon or diode-pumped, solid state (DPSS) laser at 488 nm. DAPI was visualised using a 405 nm blue diode laser. The number of vitellocytes (DAPI^+ cells) and overall volume (mapped by the green autofluorescence) for individual eggs were calculated using IMARIS 7.3 software (Bitplane).

[4] = cited from earlier work
H3K36me2 = H3K36me2 detection in adult worm histone extracts; type: cell-based, Schistosoma mansoni; conditions: siRNA 50 ng/μl, adult worms, vs siLuc
Experimental: LLY-507 (6.25 μM), BAY-598 (25 μM) or siSmp_000700 treated male and female worms (alongside DMSO or siLuc controls; 21 individuals per condition) were homogenized with a TissueLyser (Qiagen) and total histones extracted using the EpiQuik^TM Total Histone Extraction Kit (Epigentek). Levels of H3K36me2 in adult histone extracts were measured using the EpiQuik^TM Global Di-Methyl Histone H3-K36 Quantification Kit (Fluorimetric, Epigentek). Technical duplicates of three biological replicates of each treatment were analysed according to the manufacturer’s instructions. Fluorescent readings (530EX/590EM nm) were obtained using a POLARstar Omega (BMG Labtech, UK) microtiter plate reader. Fluorescent values of the samples were corrected by subtracting the fluorescent readings of the blank (buffer only, provided in the kit). The mean of the adjusted control values (DMSO for LLY-507/BAY-598 treated worms and siLuc for siSmp_000700 treated worms) was set at 100% H3K36me2 and the standard deviation (SD) was calculated from the normalised values.

smp_000700 = assay: RNAi knockdown assessment by qRT-PCR; type: cell-based, Schistosoma mansoni; conditions: 48 h, vs siLuc
Experimental: (§3) Following the perfusion of 7 wks infected mice, adult worms were recovered and RNAi performed as previously described. Briefly, smp_000700 and non-specific luciferase siRNA duplexes were purchased from Sigma (siSmp_000700 = sense: GGUAAUCGGUCAUGUGUAU[dT][dT] and anti-sense: AUACACAUGACCGAUUACC[dT][dT]; siLuc = sense CUUACGCUGAGUACUUCGA[dT][dT] and anti-sense UCGAAGUACUCAGCGUAAG[dT][dT]) and used at a final concentration of 50 ng/μl. Mixed sex adult worm pairs (for knockdown assessment by quantitative reverse transcription PCR, qRT-PCR) were cultured at 37°C in DMEM supplemented with 10% FCS, 2 mM L-glutamine, […] HEPES (Sigma-Aldrich, UK), 100 Units/ml penicillin and 100 μg/ml streptomycin in an atmosphere of 5% CO2 with a 70% media exchange performed every 48 h. The experiment was replicated three times (21 worm pairs/replicate). Quantitative reverse transcription PCR (qRT-PCR) of smp_000700 abundance was performed at 48 h and adult worm motility as well as egg counts were quantified at 168 h. Levels of H3K36me2 detected in schistosome histone extracts were assessed at 72 h.
Following RNAi with siSmp_000700 and siLuc, mixed-sex adult worms were incubated for a total of 48 h before processing them for RNA isolation. […]

adult schistosome pairs = assay: RNAi of adult schistosome pairs: motility and egg counts; type: cell-based, Schistosoma mansoni; conditions: 168 h (7 days post-treatment), vs siLuc
Experimental: as §3

| Compound | schistosomula phenotype by microscopic assessment (S. mansoni schistosomula; 10 μM, 72 h) | SELECTIVITY INDEX Schistosomula Motility (S. mansoni schistosomula; CC50 HepG2 / schistosomula motility EC50) | SELECTIVITY INDEX Schistosomula Phenotype (S. mansoni schistosomula; CC50 HepG2 / schistosomula phenotype EC50) | EC50 (S. mansoni schistosomula; 72 h, read-out: SCHISTOSOMULA EC50 Motility) | EC50 (S. mansoni schistosomula; 72 h, read-out: SCHISTOSOMULA EC50 Phenotype) | adult worm motility and IVLE production ([1]; 3.13 μM and 6.25 μM, 72 h, vs DMSO) | SELECTIVITY INDEX Adult Females ([1]; CC50 HepG2 / adult female EC50) | SELECTIVITY INDEX Adult Males ([1]; CC50 HepG2 / adult male EC50) | EC50 ([1]; 72 h, adult females, read-out: ADULT EC50 (95% Confidence Intervals) Females) | EC50 ([1]; 72 h, adult males, read-out: ADULT EC50 (95% Confidence Intervals) Males) | CC50 at 20 h [2] | CC50 (HepG2 cells) | number of vitellocytes per egg (packaging into IVLEs) [3] | overall egg volume [3] | cell permeability [4] | reduction in H3K36me2 (H3K36me2) | reduction of smp_000700 mRNA abundance (KD) (smp_000700) | adult worm motility after RNAi (adult schistosome pairs) | egg production after RNAi (adult schistosome pairs) |
| --- | --- | --- | --- | --- | --- | --- | --- | --- | --- | --- | --- | --- | --- | --- | --- | --- | --- | --- | --- |
| CCOC(=O)CCNc1cc(N2CCc3ccccc3CC2)nc(-c2ccccn2)n1 [GSK-J4, ethyl 3-[[2-pyridin-2-yl-6-(1,2,4,5-tetrahydro-3-benzazepin-3-yl)pyrimidin-4-yl]amino]propanoate] | phenotypes comparable to auranofin | 16.55 | 18.62 | 6.04 µM | 5.37 µM | led to adult worm motility and IVLE deficiencies | 8.78 | 25.49 | 11.4 µM | 3.92 µM | > 50 µM | > 100 µM | significantly inhibited the packaging | no difference | cell-permeable |  |  |  |  |
| siSmp_000700: siRNA duplex directed against smp_000700; sense GGUAAUCGGUCAUGUGUAU[dT][dT] (antisense AUACACAUGACCGAUUACC; 3' dTdT overhangs, further chemistry not given here) |  |  |  |  |  |  |  |  |  |  |  |  |  |  |  | 15% | 66% | significant reduction in adult worm motility | egg production defects |
